Test system: IL-1b
Assay: Human Monocyte IL-1b Assay
Type: cell-based
Conditions: Homo sapiens, Monocyte, fresh human whole blood; compound 0.5 h, 100 ng/mL LPS 3.5 h at 37° C., 5 mM ATP 45 min; IL-1b in supernatant by ELISA
Description: Example 46: Human Monocyte IL-1b Assay
Serially diluted testing compounds were incubated with […] of fresh human whole blood for 0.5 hours. Cells were primed with 100 ng/mL lipopolysaccharide (LPS) for 3.5 hours at 37° C. followed by stimulation with 5 mM ATP for an additional 45 minutes. The concentration of IL-1b concentration in the supernatant was determined with commercially available ELISA kits. Negative controls are wells without stimulation, while positive controls are wells with stimulation but only DMSO without compounds added. After background subtraction, compound treatment wells were then normalized to the positive controls for IC50 calculations.

- IC50: < 500 nM
SMILES: CCN1CCC[C@@H]([C@@H](O)c2cc(C)c(-c3ccc(C(F)(F)F)cc3O)nn2)C1 [Compound 45, 2-(6-((R)-((R)-1-ethylpiperidin-3-yl)(hydroxy)methyl)-4-methylpyridazin-3-yl)-5-(trifluoromethyl)phenol]

— patent publication US20230295113A1, “NLRP3 MODULATORS” (ZOMAGEN BIOSCIENCES LTD, priority 2022, published 2023)
